# Read-outs that look alike come from different tables or passages of the source.
# How the values were obtained:
# [1] = test system: HepG2 cells; test: Biotransformation experiment in HepG2 (concentration in cells and exposure medium); settings: for Biotransformation ratio between metabolites and PHE, cells / Biotransformation ratio between metabolites and PHE, medium: HepG2, 15 mg·L^−1 PHE; for Biotransformation ratio between metabolites and BDE-47, cells / Biotransformation ratio between metabolites and BDE-47, medium: HepG2, 20 mg·L^−1 BDE-47, 48 h; for Concentration in medium, t = 0 h: contaminated medium at time 0, 20 mg·L^−1 BDE-47 nominal; for Concentration in medium, no cells: contaminated medium without cells, 20 mg·L^−1 BDE-47, 48 h
# [2] = MTT cell viability assay; type: cell-based; settings: human
# Method: (§1) Cell viability was determined by MTT assay. First, 10,000 cells/well were cultured in 96-well plates for 24 h at 37 °C and 5% CO2. After that time, the culture medium was replaced with a culture medium containing different concentrations (0–70 mg·L^−1) of PHE and BDE-47 for 48 h of exposure under the same incubated conditions. After that, 20 μL MTT solution (5 mg·mL^−1 diluted in PBS) was added and incubated for the following 4 h. Viable cellular metabolic reduction of MTT produced formazan crystals, which were dissolved in 100 μL sterile DMSO and quantified with absorbance measurement at 595 nm in a Multiskan Sky High ([…] Thermo Fisher). The cell viability was estimated by using Eq. (1). 1 %Viability=Aexp-Ablank/Acontrol-Ablank∙100 where Acontrol, Aexp, and Ablank are the mean absorbance value (6 replicates) of the control group (cells without pollutant), experimental group, and blank group (only cell culture medium), respectively. Five independent assays were carried out with the same conditions. The results have been subsequently used for the design of the biotransformation experiment.
# (§2) Cell viability of each concentration was estimated by using Eq. (1) according to the absorbance values obtained in the MTT assay. The dose–response values were fitted by Origin Pro 2021 with a polynomial equation (shown in Fig. 3) from which the LC value was estimated. LC50 (50% viability) and LC30 (70% viability) were estimated by the polynomial fitting of the mean cell viability data obtained from three independent experiments. Cell viability in HepG2 decreased by 30% at 22 mg·L^−1 PHE and 38 mg·L^−1 BDE-47 and up to 50% at 38 mg·L^−1 PHE and 46 mg·L^−1 BDE-47. […] The calculated LC30 values have been subsequently used for the design of the biotransformation experiments.
# [3] = test system: HepG2 cells; test: MTT cell viability assay; type: cell-based
# Method: as §1, §2
# [4] = test system: HepG2 cells; test: Plastic and glass plate exposure test (loss and cell uptake of compound); type: in vitro ADME
# Method: Exposure of HepG2 cells (3 replicates) was performed by initially seeding approximately 2·10^6 cells in glass P100 plates and being incubated for 24 h at 37 °C (5% CO2) with 10 mL of DMEM supplemented with 10% FBS. […] The nominal exposure concentration was estimated by the previous MTT viability study, in which, more than 70% of the cells were alive at the end of the test (lethal concentration 30, LC30) to ensure good metabolizing capacity. Part of the contaminated medium was stored to determine the concentration at time 0 of exposure (“t = 0 h”). In addition, to consider possible analyte loss, a plate of control cells without pollutant (“blank”) and a plate with contaminated medium without cells (“no cells”) were incubated under the same conditions. […] Since the determination of PHE is carried out by LC-FL and its metabolites by GC–MS, the cell pellet was divided in half for each analysis. For this purpose, the adherent cells were lifted in suspension by trypsinization, and the total volume of the homogenous cell suspension was divided in half. Then, the resulting cell pellet from each fraction was collected by centrifuging at 1500 rpm for 5 min and removing the medium. However, for the determination of BDE-47 and its metabolites, the complete pellet obtained is analyzed because a simultaneous extraction is performed for both analyses. The obtained pellet was dried under a gentle stream of nitrogen, weighed on a precision analytical balance (± 0.00001 g), and stored at − 4 °C until analysis. Three independent assays were carried out with the same conditions, each with 3 replicates (plates) of the same concentration.
# A major problem in in vitro cell assays is the loss of compound during the exposure process to estimate the effective concentration available to the cell and to correctly assess the toxicity and metabolization kinetics of POPs, as most of them are hydrophobic and semi-volatile. Firstly, when concentration was determined in the exposure and no cells medium samples at the end of the test (48 h) using plastic Petri dishes, a loss of 89% and 84% compared to the t = 0 h sample was found in the cells and no cells sample respectively (Table 1). This loss, similar to that found in previous studies, is mainly explained by absorption into polystyrene, the main component of in vitro culture plates or evaporation processes because these compounds have a Henry law constant (KH) between 1 and 10 Pa·m^3·mol^−1 [11] (7.90 Pa·m^3·mol^−1 for PHE at 35 °C [13] and 3.78 Pa·m^3·mol^−1 for BDE-47 at 40 °C [40]). The remaining concentration in the medium that had not been lost by evaporation or absorbed into the cells was retained in the protein serum. […] A fraction dissolved in the medium accessible to the cells of 3.5% for anthracene (log Kow 4.5) was obtained introducing the conditions of this work into the chemical partitioning model developed by Fischer et al.. […] Therefore, it should be considered to avoid the use of plastic in tests that requires P100 plates with a very high surface area/volume ratio of the medium when studying neutral chemicals with a log Kow > 3, as is the case of PHE (log Kow 4.46 [39]) and BDE-47 (log Kow 6.81 [26]).
# Using glass plates, a loss of 47% and 26% for cells and no cells samples, respectively, was found at the end of the assay (48 h) (Table 1), and the concentration absorbed by the cells increased from 4 ± 1 to 18 ± 3%. For BDE-47, a loss of only 14% because of volatilization and an absorbed concentration of 24 ± 2% resulted using a glass plate, as BDE-47 is less volatile and more hydrophobic than PHE, favoring cell uptake. Birch et al. calculated a cell-free fraction of 13% for PHE in HepG2 cells with 10% of FBS in the medium considering the evaporation losses using glass vials. […]
# [5] = cited from earlier work
# [6] = cited from earlier work; remark: listed apart in the source
# [7] = test system: HepG2; settings: cited from earlier work; for CC50: read-out: LC50 (the source's name)
# [8] = test system: HepG2 cells; settings: 15 mg·L^−1
# [9] = design: method as in PMID 18318592; settings: cited from earlier work
# [10] = test system: HepG2 cells; design: method as in PMID 31426631; settings: 10% FBS in medium, evaporation losses considered, glass vials; cited from earlier work
# [11] = HepG2 exposed to 15 mg·L^−1 PHE, 48 h, metabolites
# [12] = HepG2 exposed to 20 mg·L^−1 BDE-47, 48 h, metabolites
# [13] = HepG2 exposed to 20 mg·L^−1 BDE-47, 48 h, parent compound
smiles,measurement,setting,value
Oc1cccc2c1ccc1ccccc12 [1-OH-PHE],"Biotransformation ratio between metabolites and PHE, cells",[1]; 48 h,0.01
same,"Biotransformation ratio between metabolites and PHE, medium",[1]; 48 h,0.22
same,"Concentration in cells, samples (n = 3)",[1]; [11],72 ± 27 ng/g
same,"Concentration in medium, samples",[1]; [11],7.7 ± 0.9 ng/mL
Oc1ccc2c(ccc3ccccc32)c1 [2-OH-PHE],"Biotransformation ratio between metabolites and PHE, cells",[1]; 48 h,0.06
same,"Biotransformation ratio between metabolites and PHE, medium",[1]; 48 h,0.15
same,"Concentration in cells, samples (n = 3)",[1]; [11],284 ± 92 ng/g
same,"Concentration in medium, samples",[1]; [11],5.2 ± 0.9 ng/mL
Oc1cc(Br)ccc1Oc1ccc(Br)cc1Br [2’-OH-BDE-28],"Concentration in cells, samples",[1]; [12],0.11 ± 0.09 ng/g
same,"Concentration in medium, samples",[1]; [12],3.2 ± 0.2 ng/mL
COc1c(Br)ccc(Oc2ccc(Br)cc2Br)c1Br [3-MeO-BDE-47],metabolite detection after exposure (in words),"[1]; HepG2 exposed to 20 mg·L^−1 BDE-47, 48 h",No quantifiable amounts
Oc1c(Br)ccc(Oc2ccc(Br)cc2Br)c1Br [3-OH-BDE-47],"Biotransformation ratio between metabolites and BDE-47, cells",[1],0.01
same,"Biotransformation ratio between metabolites and BDE-47, medium",[1],0.04
same,"Concentration in cells, samples",[1]; [12],0.21 ± 0.10 ng/g
same,"Concentration in medium, samples",[1]; [12],4.3 ± 0.2 ng/mL
Oc1ccc2ccc3ccccc3c2c1 [3-OH-PHE],"Biotransformation ratio between metabolites and PHE, cells",[1]; 48 h,0.04
same,"Biotransformation ratio between metabolites and PHE, medium",[1]; 48 h,0.13
same,"Concentration in cells, samples (n = 3)",[1]; [11],195 ± 33 ng/g
same,"Concentration in medium, samples",[1]; [11],4.0 ± 0.7 ng/mL
Oc1cccc2ccc3ccccc3c12 [4-OH-PHE],"Biotransformation ratio between metabolites and PHE, cells",[1]; 48 h,0.05
same,"Biotransformation ratio between metabolites and PHE, medium",[1]; 48 h,0.16
same,"Concentration in cells, samples (n = 3)",[1]; [11],260 ± 85 ng/g
same,"Concentration in medium, samples",[1]; [11],5 ± 1 ng/mL
COc1cc(Oc2ccc(Br)cc2Br)c(Br)cc1Br [5-MeO-BDE-47],"Biotransformation ratio between metabolites and BDE-47, cells",[1],0.03
same,"Biotransformation ratio between metabolites and BDE-47, medium",[1],0.01
same,"Concentration in cells, samples",[1]; [12],0.12 ± 0.02 ng/g
same,"Concentration in medium, samples",[1]; [12],1.2 ± 0.9 ng/mL
Oc1cc(Oc2ccc(Br)cc2Br)c(Br)cc1Br [5-OH-BDE-47],"Biotransformation ratio between metabolites and BDE-47, cells",[1],0.01
same,"Biotransformation ratio between metabolites and BDE-47, medium",[1],0.06
same,"Concentration in cells, samples",[1]; [12],0.27 ± 0.08 ng/g
same,"Concentration in medium, samples",[1]; [12],6.2 ± 0.5 ng/mL
Brc1ccc(Oc2ccc(Br)cc2Br)cc1 [BDE-28],"Concentration in cells, samples",[1]; [12],18 ± 5 ng/g
same,"Concentration in medium, samples",[1]; [12],577 ± 92 ng/mL
same,"Concentration in medium, t = 0 h",[1]; metabolites,662 ± 18 ng/mL
same,"Concentration in medium, no cells",[1]; metabolites,651 ± 36 ng/mL
"Brc1ccc(Oc2ccc(Br)cc2Br)c(Br)c1 [BDE-47, 2,2′,4,4′-tetrabromodiphenyl ether]",CC50 at 48 h,"[2]; HepG2, 48 h of exposure, MTT, polynomial fitting, read-out: LC50 (50% viability)",46 µg/mL
same,LC30 (70% viability; cell viability decreased by 30%),"[3]; HepG2, 48 h of exposure, MTT, polynomial fitting",38 µg/mL
same,loss because of volatilization,[4]; glass plate,14%
same,concentration absorbed by the cells,"[4]; glass plates, 48 h",24 ± 2%
same,Henry law constant (KH),[5]; at 40 °C,3.78 Pa·m^3·mol^−1
same,log Kow,[6],6.81
same,LC50,"[7]; HepG2, BDE-47",48.6 µg/mL
same,CC50,"[7]; HepG2, BDE-47",100 µM
same,"Concentration in cells, samples",[1]; [13],737000 ± 120000 ng/g
same,"Concentration in medium, samples",[1]; [13],13000 ± 2000 ng/mL
same,"Concentration in medium, t = 0 h",[1],16000 ± 1000 ng/mL
same,"Concentration in medium, no cells",[1],14000 ± 3000 ng/mL
"c1ccc2c(c1)ccc1ccccc12 [PHE, phenanthrene]",CC50 at 48 h,[2],38 µg/mL
same,LC30 (70% viability; cell viability decreased by 30%),"[3]; human, 48 h",22 µg/mL
same,Conc. PHE Glass plate exposure,[4]; 0 h,4370 ng/mL
same,Conc. PHE Plastic plate exposure,[4]; 0 h,5570 ng/mL
same,Conc. PHE Glass plate exposure,[4]; 24 h,3690 ng/mL
same,Conc. PHE Glass plate exposure,[4]; 48 h,3160 ng/mL
same,Conc. PHE Plastic plate exposure,[4]; 48 h,880 ng/mL
same,loss at the end of the assay,[4]; 48 h,26%
same,loss compared to the t = 0 h sample,[4]; 48 h,84%
same,concentration absorbed by the cells,"[4]; human, 48 h",18 ± 3%
same,loss at the end of the assay,"[4]; human, 48 h",47%
same,loss compared to the t = 0 h sample,"[4]; human, 48 h",89%
same,taken up by the cells,"[4]; human, 48 h",4 ± 1%
same,"Concentration in medium, t = 0 h",[8]; 0 h,12000 ± 1000 ng/mL
same,"Concentration in medium, no cells",[8]; 48 h,8000 ± 2000 ng/mL
same,"Concentration in cells, samples (n = 3)","[8]; human, 48 h",521 ± 144 µg/g
same,"Concentration in medium, samples","[8]; human, 48 h",5700 ± 700 ng/mL
same,Henry law constant (KH),[5]; at 35 °C,7.90 Pa·m^3·mol^−1
same,log Kow,[6],4.46
same,LC50,[7]; HepG2 at 48 h of PHE exposure,20.3 µg/mL
same,CC50,[7]; HepG2 at 48 h of PHE exposure,114 µM
same,absorption when glass is used,[9]; glass,2%
same,initial concentration absorbed on polystyrene,[9]; polystyrene,94%
same,cell-free fraction,[10],13%
"c1ccc2cc3ccccc3cc2c1 [anthracene, reference compound]",log Kow,[6]; value used with the partitioning model,4.5

# From publication PMC10352165, “Miniaturized method for the quantification of persistent organic pollutants and their metabolites in HepG2 cells: assessment of their biotransformation” (Analytical and Bioanalytical Chemistry, 2023)
